Test results published in PMC11500415, “Chemical inhibition of stomatal differentiation by perturbation of the master-regulatory bHLH heterodimer via an ACT-Like domain” (Nature Communications, 2024).
Several values for one entry are separate records, joined by “and”; a condition that tells them apart may be missing. Equal entries are not always repeated. Where two headings read alike, the source gives them in different places.

How the values were obtained:
MUTE_ACTLR133A_R134A = target: T1, MUTE_ACTLR133A_R134A (Arabidopsis thaliana, UniProt Q9M8K6, R133A/R134A); experiment: BLI direct binding; design: species or system A. thaliana; details: for koff: read-out: kdis(1/s), MUTE_R133A_R134A on Anti-GST sensor
T1 construct: MUTE-ACTL (114-202); made in house; host or cells: E. coli BL21
From the text: (§1) A. thaliana SCRM (1-494), ΔNSPCH (98-364), MUTE (1-202), ΔNFAMA (190-414), MUTEΔC (1-114), MUTER133A_R134A, MUTEE162A_E163A, MUTER133A_R134A_E162A_E163A, SCRM-ACTL (405-494), MUTE-ACTL (114-202), SPCH-ACTL (285-364), FAMA-ACTL (306-414), MUTE_ACTLR133A_R134A, MUTE_ACTLE162A_E163A, MUTE_ACTLR133A_R134A_E162A_E163A were cloned into pGEX-4T-1 vector with an N-terminal GST tag and a thrombin cleavage sequence. For protein expression, the constructs were transformed into E. coli strain BL21. For each transformant, a single colony was selected and incubated in 10 ml LB liquid media. The overnight-incubated E. coli suspensions were transferred to 1 L LB medium and incubated at 37 °C for around 2 h until the OD600 reached 0.4–0.6. The isopropyl β-D-1-thiogalactopyranoside ([…] of final concentration) was added to the cultures and the strains were incubated at 22 °C for a further 18 h. GST-fused proteins were purified using glutathione agarose resin. The soluble portion of the cell lysate was loaded onto a GST-Sepharose column. Nonspecifically bound proteins were removed by washing the column with 20 mM Tris pH 8.0, 200 mM NaCl. The bound GST-fused protein was eluted with 10 mm glutathione and 20 mM Tris pH 8.0, 200 mM NaCl. The GST-fused proteins were exchanged with phosphate-buffered saline buffer, and then the solution was treated with 50 μg of thrombin for 10–12 h at 16 ^οC. The GST portion of the protein was cleaved during thrombin digestion, and then the whole solution was reloaded onto the glutathione S-transferase column to obtain pure protein. The purified proteins were further purified by gel filtration on a Superdex-200 (GE) column using fast protein liquid chromatography and phosphate buffer (pH 7.2) as the eluent. The purity of the protein was checked by SDS-PAGE. For detailed lists of oligo DNA and plasmid information, see Supplementary Tables 5, 6, respectively.
(§2) The binding affinities of SCRM to MUTE / MUTER133A_R134A / MUTEE162A_E163A / MUTER133A_R134A_E162A_E163A in presence and absence of Stomidazolone (3) and its analogues (AYSJ1059 (5) and AYSJ1061 (6)), and Stomidazolone / AYSJ1059 / AYSJ1061 interactions with GST-tagged SCRM, MUTE, SPCH, FAMA, MUTE ΔACTL, MUTE_ACTL, SCRM_ACTL, SPCH_ACTL and FAMA_ACTL, MUTER133A_134A, MUTEE162A_E163A, MUTER133A_R134A_E162A_E163A were measured using the Octet Red96 system (ForteBio, Pall Life Sciences) following the manufacturer’s protocols. The optical probes coated with anti-GST were first loaded with 500 nM GST tagged proteins before kinetic binding analyses. The experiment was performed in 96-well plates maintained at 30 °C. Each well was loaded with 200 μL reaction volume for the experiment. The binding buffer used in these experiments contained 1× PBS supplemented with 2% DMSO, 0.02% Tween20. The concentrations of the Stomidazolone as the analyte in the binding buffer were 100, 50, 25, 12.5, 6.25, 3.12, and 1.56 μM. There was no binding of the analytes to the unloaded probes as shown by the control wells. Binding kinetics to all seven concentrations of the analytes were measured simultaneously using default parameters on the instrument. The data were analyzed using the Octet data analysis software. The association and dissociation curves were fit with the 1:1 homogeneous ligand model. The kobs (observed rate constant) values were used to calculate Kd, with steady-state analysis of the direct binding. See Supplementary Table 3 for details.

[1] = target: T2, MUTE_ACTLR133A_R134A_E162A_E163A (Arabidopsis thaliana, UniProt Q9M8K6, E162A/E163A/R133A/R134A); experiment: BLI direct binding; design: species or system A. thaliana; details: for Response: MUTE_R133A_R134A_E162A_E163A on Anti-GST sensor, rep-1, rep-2
T2 construct: MUTE-ACTL (114-202); made in house; host or cells: E. coli BL21
From the text: as §1, §2

[2] = MUTE_R133A_R134A on Anti-GST sensor, Stomid 3.12 µM, rep-1, rep-2
[3] = MUTE_R133A_R134A on Anti-GST sensor, Stomid 6.25 µM, rep-1, rep-2
[4] = MUTE_R133A_R134A on Anti-GST sensor, Stomid 12.5 µM, rep-1, rep-2
[5] = MUTE_R133A_R134A on Anti-GST sensor, Stomid 25 µM, rep-1, rep-2
[6] = MUTE_R133A_R134A on Anti-GST sensor, Stomid 50 µM, rep-1, rep-2
[7] = MUTE_R133A_R134A on Anti-GST sensor, Stomid 100 µM, rep-1, rep-2
[8] = MUTE_R133A_R134A on Anti-GST sensor, Stomid 200 µM, rep-1, rep-2

T1 sequence (Q9M8K6 114-202 R133A/R134A): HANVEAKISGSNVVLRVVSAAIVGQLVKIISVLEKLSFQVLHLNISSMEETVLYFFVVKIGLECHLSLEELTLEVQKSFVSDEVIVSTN
T2 sequence (Q9M8K6 114-202 R133A/R134A/E162A/E163A): as the sequence (Q9M8K6 114-202 R133A/R134A) above, with E49A, E50A counted along it

Which results are given for `O=C1C(c2ccccc2)=NC(NS(=O)(=O)c2ccccc2)(c2ccccc2)N1S(=O)(=O)c1ccccc1` (stereo not shown) [Stomidazolone]?
Kd (MUTE_ACTLR133A_R134A; BLI, MUTE_ACTL R133A_R134A): 120 ± 5.5 µM; Kd (MUTE_ACTLR133A_R134A; [2]): 127 µM and 126 µM; RMax (MUTE_ACTLR133A_R134A; [2]): 0.03 and 0.048; Req/Rmax(%) (MUTE_ACTLR133A_R134A; [2]): 93.1% and 100%; Response (MUTE_ACTLR133A_R134A; [2]): 0.027 and 0.0456; Kd (MUTE_ACTLR133A_R134A; [3]): 128 µM and 127 µM; RMax (MUTE_ACTLR133A_R134A; [3]): 0.06 and 0.08; Req/Rmax(%) (MUTE_ACTLR133A_R134A; [3]): 100%; Response (MUTE_ACTLR133A_R134A; [3]): 0.058 and 0.079; kobs (MUTE_ACTLR133A_R134A; [3]): 0.00193 s⁻¹ and 0.00258 s⁻¹; kon (MUTE_ACTLR133A_R134A; [3]): 976 M⁻¹ s⁻¹; Kd (MUTE_ACTLR133A_R134A; [4]): 126 µM and 124 µM; RMax (MUTE_ACTLR133A_R134A; [4]): 0.092 and 0.085; Req/Rmax(%) (MUTE_ACTLR133A_R134A; [4]): 93.1% and 100%; Response (MUTE_ACTLR133A_R134A; [4]): 0.092 and 0.081; kdis (MUTE_ACTLR133A_R134A; [4]): 0.124 s⁻¹; Kd (MUTE_ACTLR133A_R134A; [5]): 128 µM and 126 µM; Req/Rmax(%) (MUTE_ACTLR133A_R134A; [5]): 78.8% and 93.9%; kdis (MUTE_ACTLR133A_R134A; [5]): 0.123 s⁻¹; kobs (MUTE_ACTLR133A_R134A; [5]): 0.00186 s⁻¹ and 0.00281 s⁻¹; kon (MUTE_ACTLR133A_R134A; [5]): 975 M⁻¹ s⁻¹; Kd (MUTE_ACTLR133A_R134A; [6]): 127 µM and 125 µM; RMax (MUTE_ACTLR133A_R134A; [6]): 0.195 and 0.225; Response (MUTE_ACTLR133A_R134A; [6]): 0.193 and 0.2221; kdis (MUTE_ACTLR133A_R134A; [6]): 0.122 s⁻¹; kon (MUTE_ACTLR133A_R134A; [6]): 976 M⁻¹ s⁻¹; Kd (MUTE_ACTLR133A_R134A; [7]): 130 µM and 127 µM; RMax (MUTE_ACTLR133A_R134A; [7]): 0.244 and 0.289; Req/Rmax(%) (MUTE_ACTLR133A_R134A; [7]): 96.5% and 96.6%; Response (MUTE_ACTLR133A_R134A; [7]): 0.242 and 0.284; kobs (MUTE_ACTLR133A_R134A; [7]): 0.00717 s⁻¹ and 0.00706 s⁻¹; kon (MUTE_ACTLR133A_R134A; [7]): 980 M⁻¹ s⁻¹; Kd (MUTE_ACTLR133A_R134A; [8]): 127 µM and 130 µM; RMax (MUTE_ACTLR133A_R134A; [8]): 0.344 and 0.38; Req/Rmax(%) (MUTE_ACTLR133A_R134A; [8]): 99.9% and 99.8%; Response (MUTE_ACTLR133A_R134A; [8]): 0.341 and 0.375; kdis (MUTE_ACTLR133A_R134A; [8]): 0.125 s⁻¹; kobs (MUTE_ACTLR133A_R134A; [8]): 0.0285 s⁻¹ and 0.0284 s⁻¹; kon (MUTE_ACTLR133A_R134A; [8]): 960 M⁻¹ s⁻¹; koff (MUTE_ACTLR133A_R134A; Stomid 3.12 µM, rep-1, rep-2): 0.122 s⁻¹; koff (MUTE_ACTLR133A_R134A; Stomid 6.25 µM, rep-1, rep-2): 0.124 s⁻¹; koff (MUTE_ACTLR133A_R134A; Stomid 12.5 µM, rep-1, rep-2): 0.125 s⁻¹; koff (MUTE_ACTLR133A_R134A; Stomid 25 µM, rep-1, rep-2): 0.125 s⁻¹; koff (MUTE_ACTLR133A_R134A; Stomid 50 µM, rep-1, rep-2): 0.123 s⁻¹; koff (MUTE_ACTLR133A_R134A; Stomid 100 µM, rep-1, rep-2): 0.125 s⁻¹; koff (MUTE_ACTLR133A_R134A; Stomid 200 µM, rep-1, rep-2): 0.126 s⁻¹; kon (MUTE_ACTLR133A_R134A; read-out: kon(1/Ms), MUTE_R133A_R134A on Anti-GST sensor, Stomid 3.12 µM, rep-1, rep-2): 966 M⁻¹ s⁻¹; kon (MUTE_ACTLR133A_R134A; read-out: kon(1/Ms), MUTE_R133A_R134A on Anti-GST sensor, Stomid 6.25 µM, rep-1, rep-2): 970 M⁻¹ s⁻¹; kon (MUTE_ACTLR133A_R134A; read-out: kon(1/Ms), MUTE_R133A_R134A on Anti-GST sensor, Stomid 12.5 µM, rep-1, rep-2): 990 M⁻¹ s⁻¹; kon (MUTE_ACTLR133A_R134A; read-out: kon(1/Ms), MUTE_R133A_R134A on Anti-GST sensor, Stomid 25 µM, rep-1, rep-2): 980 M⁻¹ s⁻¹; kon (MUTE_ACTLR133A_R134A; read-out: kon(1/Ms), MUTE_R133A_R134A on Anti-GST sensor, Stomid 50 µM, rep-1, rep-2): 970 M⁻¹ s⁻¹; kon (MUTE_ACTLR133A_R134A; read-out: kon(1/Ms), MUTE_R133A_R134A on Anti-GST sensor, Stomid 100 µM, rep-1, rep-2): 960 M⁻¹ s⁻¹; kon (MUTE_ACTLR133A_R134A; read-out: kon(1/Ms), MUTE_R133A_R134A on Anti-GST sensor, Stomid 200 µM, rep-1, rep-2): 990 M⁻¹ s⁻¹; KD (SS) ([1]; BLI steady state, MUTE_ACTL R133A_R134A_E162A_E163A, ND = no binding was detected): no binding was detected; Response ([1]; Stomid 3.12 µM): 0.021 and 0.041; Response ([1]; Stomid 6.25 µM): 0.061 and 0.035; Response ([1]; Stomid 12.5 µM): 0.063 and 0.047; Response ([1]; Stomid 25 µM): 0.078 and 0.041; Response ([1]; Stomid 50 µM): 0.062 and 0.082; Response ([1]; Stomid 100 µM): 0.075 and 0.108; Response ([1]; Stomid 200 µM): 0.104 and 0.136
